Results taken from patent US5266698A, “Certain aryl and cycloalkyl fused imidazopyrazinediones; a new class of GABA brain receptor ligands” (Neurogen Corporation, priority 1992, dated 1993).

Legend:
GABA receptor = settings: stereoisomers of bicuculline; Tallman et al., 1978, Nature, 274: 383-85; cited from earlier work
[1] = target: GABAa receptor (benzodiazepine receptor); test: GABAa receptor binding assay ([3H]-Flumazenil (RO15-1788) displacement, rat cortical tissue); settings: rat cortical tissue homogenate; 0.5 nM 3H-RO15-1788; 30 min at 4° C., pH 7.4; nonspecific: 1.0 mM diazepam
Procedure: The pharmaceutical utility of compounds of this invention are indicated by the following assay for GABAa receptor activity.
Assays are carried out as described in Thomas and Tallman (J. Bio. Chem. 156: 9838-9842, J. Neurosci. 3:433-440, 1983). Rat cortical tissue is dissected and homogenized in 25 volumes (w/v) of 0.05M Tris HCl buffer (pH 7.4 at 4° C.). The tissue homogenate is centrifuged in the cold (4°) at 20,000×g for 20'. The supernatant is decanted and the pellet is rehomogenized in the same volume of buffer and again centrifuged at 20,000×g. The supernatant is decanted and the pellet is frozen at -20° C. overnight. The pellet is then thawed and rehomogenized in 25 volume (original wt/vol) of buffer and the procedure i carried out twice. The pellet is finally resuspended in 50 volumes (w/vol of 0.05M Tris HCl buffer (pH 7.4 at […]).
Incubations contain […] of tissue homogenate, […] of radioligand 0.5 nM (^3 H-RO15-1788 [^3 H-Flumazenil] specific activity 80 Ci/mmol), drug or blocker and buffer to a total volume of […]. Incubations are carried for 30 min at 4° C. then are rapidly filtered through GFB filters to separate free and bound ligand. Filters are washed twice and fresh 0.05M Tris HCl buffer (pH 7.4 at 4° C.) and counted in a liquid scintillation counter. 1.0 mM diazepam is added to some tubes to determine nonspecific binding. Data are collected in triplicate determinations, averaged and % inhibition of total specific binding is calculated. Total Specific Binding=Total-Nonspecific. In some cases, the amounts of unlabeled drugs is varied and total displacement curves of binding are carried out. Data are converted to a form for the calculation of IC50 and Hill Coefficient (nH).

SMILES | Block of enhancement of benzodiazepine binding by GABA agonists (GABA receptor) | IC50 [1] [nM]
CN1CCc2cc3c(cc2C1C1OC(=O)c2c1ccc1c2OCO1)OCO3 (single isomer, unassigned; (+)) [(+) bicuculline] | blocked | 
CN1CCc2cc3c(cc2C1C1OC(=O)c2c1ccc1c2OCO1)OCO3 (single isomer, unassigned; (-)) [(-) bicuculline] | much less active | 
O=c1c2c[nH]c3cccnc3n-2c(=O)n1-c1ccccc1 [Compound 1, 2-Phenyl-imidazo[1,5,a]pyrido[3,2-e]pyrazine-1,3(2H,5H)-dione] |  | 10
COc1ccc(-n2c(=O)c3c[nH]c4cccnc4n-3c2=O)cc1 [Compound 5, 2-(4-Methoxyphenyl)-imidazo[1,5,a]pyrido[3,2-e]pyrazine-2,3(2H,5H)-dione] |  | 9
CCOc1ccc(-n2c(=O)c3c[nH]c4cccnc4n-3c2=O)cc1 [Compound 8, 2-(4-Ethoxyphenyl)-imidazo[1,5,a]pyrido[3,2-e]pyrazine-2,3(2H,5H)-dione] |  | 20
